# Experimental data from patent publication US20220081412A1, “QUINOLINYL-PYRAZINE-CARBOXAMIDE COMPOUNDS AND USES THEREOF” (The Regents of the University of Michigan, priority 2018, published 2022).
# Tested on: NCI60 cell lines
# Experiment: NCI60 cell line panel
# Assay type: cell-based, human
# Description: The Developmental Therapeutics Program (DTP) of NCI has evaluated more than 100,000 pure compounds and more than 34,000 crude extracts against the panel of human tumor cell lines. The resultant data are analyzed using a program called COMPARE, that rank the entire database of tested compounds in the order of the similarity of the responses. […] Thus, the NCI60 databases is highly useful to the cancer research community. Further experiments were conducted that tested some of the active compounds in a panel of NCI60 cell line to relate our compounds with some known inhibitors to have an idea of possible mechanism of action.
# In order to understand the selectivity of these compounds in different cancer types, some of them were tested against a panel of 60 cell lines (Table XXXIX).
smiles,measurement,setting,value
"CCN(CC)CCCC(C)Nc1cnc(C(=O)Nc2ccc(Cl)c3cccnc23)cn1 (centres unmarked) [J9, N-(5-chloroquinolin-8-yl)-5-((5-(diethylamino)pentan-2-yl)amino)pyrazine-2-carboxamide]",GIPRCNT: % Growth inhibition,"Breast Cancer, BT-549",80.08%
same,GIPRCNT: % Growth inhibition,"Breast Cancer, HS 578T",51.41%
same,GIPRCNT: % Growth inhibition,"Breast Cancer, MCF7",−2.145%
same,GIPRCNT: % Growth inhibition,"Breast Cancer, MDA-MB-231/ATCC",−29.6765%
same,GIPRCNT: % Growth inhibition,"Breast Cancer, MDA-MB-468",−28.0145%
same,GIPRCNT: % Growth inhibition,"Breast Cancer, T-47D",−49.3289%
same,GIPRCNT: % Growth inhibition,"CNS Cancer, SF-268",35.85%
same,GIPRCNT: % Growth inhibition,"CNS Cancer, SF-295",63.03%
same,GIPRCNT: % Growth inhibition,"CNS Cancer, SF-539",−73.563%
same,GIPRCNT: % Growth inhibition,"CNS Cancer, SNB-19",49.65%
same,GIPRCNT: % Growth inhibition,"CNS Cancer, SNB-75",41.7%
same,GIPRCNT: % Growth inhibition,"CNS Cancer, U251",−35.3044%
same,GIPRCNT: % Growth inhibition,"Colon Cancer, COLO 205",−66.6925%
same,GIPRCNT: % Growth inhibition,"Colon Cancer, HCC-2998",32.59%
same,GIPRCNT: % Growth inhibition,"Colon Cancer, HCT-15",3.732%
same,GIPRCNT: % Growth inhibition,"Colon Cancer, HCT-116",−52.4351%
same,GIPRCNT: % Growth inhibition,"Colon Cancer, HT29",−49.3651%
same,GIPRCNT: % Growth inhibition,"Colon Cancer, KM12",30.3%
same,GIPRCNT: % Growth inhibition,"Colon Cancer, SW-620",0.6189%
same,GIPRCNT: % Growth inhibition,"Leukemia, CCRF-CEM",5.288%
same,GIPRCNT: % Growth inhibition,"Leukemia, HL-60(TB)",−63.3005%
same,GIPRCNT: % Growth inhibition,"Leukemia, K-562",−45.7589%
same,GIPRCNT: % Growth inhibition,"Leukemia, MOLT-4",2.901%
same,GIPRCNT: % Growth inhibition,"Leukemia, RPMI-8226",2.196%
same,GIPRCNT: % Growth inhibition,"Leukemia, SR",1.416%
same,GIPRCNT: % Growth inhibition,"Melanoma, LOX IMVI",−83.8894%
same,GIPRCNT: % Growth inhibition,"Melanoma, M14",−73.1499%
same,GIPRCNT: % Growth inhibition,"Melanoma, MALME-3M",−71.7698%
same,GIPRCNT: % Growth inhibition,"Melanoma, MDA-MB-435",−57.8225%
same,GIPRCNT: % Growth inhibition,"Melanoma, SK-MEL-2",57.84%
same,GIPRCNT: % Growth inhibition,"Melanoma, SK-MEL-5",−3.699%
same,GIPRCNT: % Growth inhibition,"Melanoma, UACC-62",−52.4398%
same,GIPRCNT: % Growth inhibition,"Melanoma, UACC-257",−32.9601%
same,GIPRCNT: % Growth inhibition,"Non-Small Cell Lung Cancer, A549/ATCC",23.43%
same,GIPRCNT: % Growth inhibition,"Non-Small Cell Lung Cancer, EKVX",66.07%
same,GIPRCNT: % Growth inhibition,"Non-Small Cell Lung Cancer, HOP-62",43.04%
same,GIPRCNT: % Growth inhibition,"Non-Small Cell Lung Cancer, HOP-92",38.78%
same,GIPRCNT: % Growth inhibition,"Non-Small Cell Lung Cancer, NCI-H23",80.43%
same,GIPRCNT: % Growth inhibition,"Non-Small Cell Lung Cancer, NCI-H226",39.13%
same,GIPRCNT: % Growth inhibition,"Non-Small Cell Lung Cancer, NCI-H322M",35.3%
same,GIPRCNT: % Growth inhibition,"Non-Small Cell Lung Cancer, NCI-H460",3.469%
same,GIPRCNT: % Growth inhibition,"Non-Small Cell Lung Cancer, NCI-H522",4.415%
same,GIPRCNT: % Growth inhibition,"Ovarian Cancer, IGROV1",44.22%
same,GIPRCNT: % Growth inhibition,"Ovarian Cancer, NCI/ADR-RES",52.19%
same,GIPRCNT: % Growth inhibition,"Ovarian Cancer, OVCAR-3",−23.663%
same,GIPRCNT: % Growth inhibition,"Ovarian Cancer, OVCAR-4",51.32%
same,GIPRCNT: % Growth inhibition,"Ovarian Cancer, OVCAR-5",53.28%
same,GIPRCNT: % Growth inhibition,"Ovarian Cancer, OVCAR-8",27.34%
same,GIPRCNT: % Growth inhibition,"Ovarian Cancer, SK-OV-3",79.51%
same,GIPRCNT: % Growth inhibition,"Prostate Cancer, DU-145",53.1%
same,GIPRCNT: % Growth inhibition,"Prostate Cancer, PC-3",39.38%
same,GIPRCNT: % Growth inhibition,"Renal Cancer, 786-0",−44.1831%
same,GIPRCNT: % Growth inhibition,"Renal Cancer, A498",53.99%
same,GIPRCNT: % Growth inhibition,"Renal Cancer, ACHN",−54.7701%
same,GIPRCNT: % Growth inhibition,"Renal Cancer, CAKI-1",23.14%
same,GIPRCNT: % Growth inhibition,"Renal Cancer, RXF 393",18.75%
same,GIPRCNT: % Growth inhibition,"Renal Cancer, SN12C",31.6819%
same,GIPRCNT: % Growth inhibition,"Renal Cancer, TK-10",57.61%
same,GIPRCNT: % Growth inhibition,"Renal Cancer, UO-31",23.83%
